Columns and labels:
Assay type in all cases: biochemical
ZAK/MLTK = ZAK/MLTK (Homo sapiens, UniProt Q9NYL2); experiment: Kinase inhibition panel; settings: 10 μM ATP
PKCnu/PRK D3 = PKCnu/PRK D3 (Homo sapiens, UniProt O94806); experiment: Kinase inhibition panel; settings: 10 μM ATP
LYN = LYN (Homo sapiens, UniProt P07948); experiment: Kinase inhibition panel; settings: 10 μM ATP
FGFR4 = FGFR4 (Homo sapiens, UniProt P22455); experiment: Kinase inhibition panel; settings: 10 μM ATP
c-Kit = c-Kit (Homo sapiens, UniProt P10721); experiment: Kinase inhibition panel; settings: 10 μM ATP
TAOK1 = TAOK1 (Homo sapiens, UniProt Q7L7X3); experiment: Kinase inhibition panel; settings: 10 μM ATP
CDK4/Cyclin D3 = CDK4/Cyclin D3 (Homo sapiens, UniProt P11802); experiment: Kinase inhibition panel; settings: 10 μM ATP
ABL1 = ABL1 (Homo sapiens, UniProt P00519); experiment: Kinase inhibition panel; settings: 10 μM ATP
Method: (§1) The compounds in Table 4 were tested for the ability to inhibit the kinase activity of the listed protein kinases.

TGFbR2 = TGFbR2 (Homo sapiens, UniProt P37173); experiment: Kinase inhibition panel; settings: 10 μM ATP
Method: as §1

CDK5/p25 = CDK5/p25 (Homo sapiens, UniProt Q00535); experiment: Kinase inhibition panel; settings: 10 μM ATP
Method: as §1

CDK5/p35 = CDK5/p35 (Homo sapiens, UniProt Q00535); experiment: Kinase inhibition panel; settings: 10 μM ATP
Method: as §1

LCK = LCK (Homo sapiens, UniProt P06239); experiment: Kinase inhibition panel; settings: 10 μM ATP
Method: as §1

LIMK1 = LIMK1 (Homo sapiens, UniProt P53667); experiment: Kinase inhibition panel; settings: 10 μM ATP
Method: as §1

FRK/PTK5 = FRK/PTK5 (Homo sapiens, UniProt P42685); experiment: Kinase inhibition panel; settings: 10 μM ATP
YES/YES1 = YES/YES1 (Homo sapiens, UniProt P07947); experiment: Kinase inhibition panel; settings: 10 μM ATP
PKCmu = PKCmu (Homo sapiens, UniProt Q15139); experiment: Kinase inhibition panel; settings: 10 μM ATP
FYN = FYN (Homo sapiens, UniProt P06241); experiment: Kinase inhibition panel; settings: 10 μM ATP
TTK = TTK (Homo sapiens, UniProt P33981); experiment: Kinase inhibition panel; settings: 10 μM ATP
PDGFRb = PDGFRb (Homo sapiens, UniProt P09619); experiment: Kinase inhibition panel; settings: 10 μM ATP
CDK7/cyclinH/MNAT1 = CDK7/cyclinH/MNAT1 (Homo sapiens, UniProt P50613); experiment: Kinase inhibition panel; settings: 10 μM ATP
CDK6/cyclinD3 = CDK6/cyclinD3 (Homo sapiens, UniProt Q00534); experiment: Kinase inhibition panel; settings: 10 μM ATP
[1] = target: T1, His-tagged full length ARK5 (Homo sapiens, UniProt O60285); experiment: ARK5 Kinase Assay (ARK5 Inhibition Assay); settings: CHKtide substrate, 1 μM ATP
T1 construct: 20 ng His-tagged full length ARK5 (Invitrogen PV4127); His; purchased Invitrogen PV4127
T1 sequence (O60285 1-661): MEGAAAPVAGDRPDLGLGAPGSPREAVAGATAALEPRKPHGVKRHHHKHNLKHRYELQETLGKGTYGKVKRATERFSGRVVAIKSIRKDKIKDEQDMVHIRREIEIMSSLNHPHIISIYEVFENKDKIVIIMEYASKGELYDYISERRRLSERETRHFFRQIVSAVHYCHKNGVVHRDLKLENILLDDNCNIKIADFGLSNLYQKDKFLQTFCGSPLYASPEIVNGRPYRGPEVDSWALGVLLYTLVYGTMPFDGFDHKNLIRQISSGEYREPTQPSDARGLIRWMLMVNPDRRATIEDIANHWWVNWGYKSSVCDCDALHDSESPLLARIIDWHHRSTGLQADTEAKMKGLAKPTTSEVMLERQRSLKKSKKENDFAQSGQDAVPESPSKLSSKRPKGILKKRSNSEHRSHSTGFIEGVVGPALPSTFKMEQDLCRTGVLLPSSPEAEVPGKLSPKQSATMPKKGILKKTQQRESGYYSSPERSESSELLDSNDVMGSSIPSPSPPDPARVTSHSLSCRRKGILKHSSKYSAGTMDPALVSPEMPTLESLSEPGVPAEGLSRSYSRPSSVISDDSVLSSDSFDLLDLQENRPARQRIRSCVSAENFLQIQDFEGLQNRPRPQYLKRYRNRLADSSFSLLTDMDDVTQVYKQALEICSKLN
Method: 20 ng His-tagged full length ARK5 (Invitrogen PV4127), a protein kinase, was diluted into kinase buffer (25 mM HEPES pH 7.5, 10 mM MgCl2, 0.5 mM EGTA, 0.5 mM Na3V04, 5 mM β Glycerophosphate, 2.5 mM DTT, 0.01% Triton X-100) and incubated with the indicated concentration of a compound of Table 3 at room temperature for 30 minutes. The kinase reactions were then initiated by the addition of 1 μg (3.28 μM) CHKtide substrate peptide (Upstate 12-414), 1 μM ATP and 10 μCi γ^32 P-ATP. The reactions were incubated at 30° C. for 10 minutes.
Subsequently, the reactions were stopped by adding 3% phosphoric acid. A 10 μl aliquot was then transferred to an appropriate area of a p30 filtermat. The filtermat was allowed to dry for 20 minutes at room temperature and then washed three times with 75 mM phosphoric acid and twice with methanol. The filtermat was then dried for 20 minutes at room temperature. The filtermat was then exposed to X ray film or read in a scintillation counter. The scintillation counting values were plotted as function of log drug concentration using Prism 4 Graph pad software and IC50 values determined by plotting sigmoidal non-linear regression curves with variable slope.

FGFR2 = FGFR2 (Homo sapiens, UniProt P21802); experiment: Kinase inhibition panel; settings: 10 μM ATP
EphB2/HEK5 = EphB2/HEK5 (Homo sapiens, UniProt P29323); experiment: Kinase inhibition panel; settings: 10 μM ATP
FGR = FGR (Homo sapiens, UniProt P09769); experiment: Kinase inhibition panel; settings: 10 μM ATP
CDK9/cyclinT1 = CDK9/cyclinT1 (Homo sapiens, UniProt P50750); experiment: Kinase inhibition panel; settings: 10 μM ATP

Chain of ABL1 (P00519 whole entry, species assumed): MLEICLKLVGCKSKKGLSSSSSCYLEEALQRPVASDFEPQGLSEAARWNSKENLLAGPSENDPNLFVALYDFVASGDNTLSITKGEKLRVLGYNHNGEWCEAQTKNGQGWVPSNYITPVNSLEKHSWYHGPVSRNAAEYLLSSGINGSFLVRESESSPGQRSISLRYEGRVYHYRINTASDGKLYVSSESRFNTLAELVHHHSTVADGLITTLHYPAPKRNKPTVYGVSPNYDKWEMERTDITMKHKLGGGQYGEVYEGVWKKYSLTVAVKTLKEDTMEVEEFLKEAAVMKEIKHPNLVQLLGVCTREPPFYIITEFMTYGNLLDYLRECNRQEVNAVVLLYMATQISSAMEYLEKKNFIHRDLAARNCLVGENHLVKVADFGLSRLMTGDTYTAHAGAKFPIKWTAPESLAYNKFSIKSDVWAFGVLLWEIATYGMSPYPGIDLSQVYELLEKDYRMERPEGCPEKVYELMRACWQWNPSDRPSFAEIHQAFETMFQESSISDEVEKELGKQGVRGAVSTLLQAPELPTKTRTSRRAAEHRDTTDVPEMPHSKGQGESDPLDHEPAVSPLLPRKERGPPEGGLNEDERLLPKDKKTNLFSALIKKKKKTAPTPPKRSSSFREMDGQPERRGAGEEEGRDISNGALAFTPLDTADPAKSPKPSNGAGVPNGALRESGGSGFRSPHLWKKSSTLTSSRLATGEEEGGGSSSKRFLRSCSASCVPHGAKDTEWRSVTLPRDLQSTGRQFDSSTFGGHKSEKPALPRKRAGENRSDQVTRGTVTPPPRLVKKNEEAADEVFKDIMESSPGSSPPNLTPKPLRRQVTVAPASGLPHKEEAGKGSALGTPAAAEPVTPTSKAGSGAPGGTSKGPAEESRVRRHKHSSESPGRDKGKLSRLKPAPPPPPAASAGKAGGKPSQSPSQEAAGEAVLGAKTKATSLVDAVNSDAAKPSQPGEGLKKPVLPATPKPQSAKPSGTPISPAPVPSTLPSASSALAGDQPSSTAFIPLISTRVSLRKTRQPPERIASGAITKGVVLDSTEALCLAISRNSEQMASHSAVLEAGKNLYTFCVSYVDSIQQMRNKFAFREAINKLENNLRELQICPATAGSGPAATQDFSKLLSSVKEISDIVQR
Chain of TTK (P33981 whole entry, species assumed): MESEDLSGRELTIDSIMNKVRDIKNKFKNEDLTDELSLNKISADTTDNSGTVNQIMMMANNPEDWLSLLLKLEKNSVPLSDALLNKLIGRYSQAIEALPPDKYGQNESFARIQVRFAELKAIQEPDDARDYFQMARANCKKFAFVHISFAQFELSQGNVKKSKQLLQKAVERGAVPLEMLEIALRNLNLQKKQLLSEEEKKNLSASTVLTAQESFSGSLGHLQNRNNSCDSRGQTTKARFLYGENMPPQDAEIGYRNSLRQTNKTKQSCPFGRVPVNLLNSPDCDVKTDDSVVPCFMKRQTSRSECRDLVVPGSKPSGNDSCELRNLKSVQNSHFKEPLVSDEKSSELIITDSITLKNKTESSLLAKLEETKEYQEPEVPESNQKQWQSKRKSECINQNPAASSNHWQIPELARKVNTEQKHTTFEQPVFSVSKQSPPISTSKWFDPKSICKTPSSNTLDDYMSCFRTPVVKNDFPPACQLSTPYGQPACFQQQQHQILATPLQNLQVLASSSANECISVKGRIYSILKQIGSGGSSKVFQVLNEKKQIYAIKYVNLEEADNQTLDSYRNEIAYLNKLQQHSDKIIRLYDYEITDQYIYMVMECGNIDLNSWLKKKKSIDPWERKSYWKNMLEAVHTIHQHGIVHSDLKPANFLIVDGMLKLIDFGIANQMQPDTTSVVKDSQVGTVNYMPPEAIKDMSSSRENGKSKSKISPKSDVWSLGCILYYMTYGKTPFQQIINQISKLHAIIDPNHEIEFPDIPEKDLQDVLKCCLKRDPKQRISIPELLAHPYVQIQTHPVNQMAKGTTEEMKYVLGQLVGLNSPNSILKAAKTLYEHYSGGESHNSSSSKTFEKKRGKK
Chain of PKCnu/PRK D3 (O94806 whole entry): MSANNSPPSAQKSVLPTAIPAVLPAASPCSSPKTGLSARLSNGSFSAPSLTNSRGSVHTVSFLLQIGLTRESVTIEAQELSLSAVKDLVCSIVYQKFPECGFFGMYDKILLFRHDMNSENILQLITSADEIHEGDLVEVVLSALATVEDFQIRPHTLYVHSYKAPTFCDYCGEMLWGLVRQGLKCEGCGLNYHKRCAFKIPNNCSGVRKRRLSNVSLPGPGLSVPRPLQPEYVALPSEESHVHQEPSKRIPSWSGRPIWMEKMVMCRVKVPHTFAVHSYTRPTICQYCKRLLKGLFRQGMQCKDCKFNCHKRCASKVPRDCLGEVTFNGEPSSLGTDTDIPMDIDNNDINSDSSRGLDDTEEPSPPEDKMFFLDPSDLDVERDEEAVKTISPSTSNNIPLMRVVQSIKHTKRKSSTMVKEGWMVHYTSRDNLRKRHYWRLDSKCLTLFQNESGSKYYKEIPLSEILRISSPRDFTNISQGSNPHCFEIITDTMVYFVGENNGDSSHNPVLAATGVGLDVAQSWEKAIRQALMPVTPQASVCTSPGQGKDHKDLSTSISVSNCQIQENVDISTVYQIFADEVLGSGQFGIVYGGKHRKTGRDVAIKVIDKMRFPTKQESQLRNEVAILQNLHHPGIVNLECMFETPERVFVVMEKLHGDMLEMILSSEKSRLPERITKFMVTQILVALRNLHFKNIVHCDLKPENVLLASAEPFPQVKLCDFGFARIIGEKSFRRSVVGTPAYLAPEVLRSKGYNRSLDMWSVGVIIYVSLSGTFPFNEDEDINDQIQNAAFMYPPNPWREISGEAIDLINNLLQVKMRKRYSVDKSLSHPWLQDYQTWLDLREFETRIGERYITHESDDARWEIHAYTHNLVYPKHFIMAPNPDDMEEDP
Chain of FGFR4 (P22455 22-802, species assumed): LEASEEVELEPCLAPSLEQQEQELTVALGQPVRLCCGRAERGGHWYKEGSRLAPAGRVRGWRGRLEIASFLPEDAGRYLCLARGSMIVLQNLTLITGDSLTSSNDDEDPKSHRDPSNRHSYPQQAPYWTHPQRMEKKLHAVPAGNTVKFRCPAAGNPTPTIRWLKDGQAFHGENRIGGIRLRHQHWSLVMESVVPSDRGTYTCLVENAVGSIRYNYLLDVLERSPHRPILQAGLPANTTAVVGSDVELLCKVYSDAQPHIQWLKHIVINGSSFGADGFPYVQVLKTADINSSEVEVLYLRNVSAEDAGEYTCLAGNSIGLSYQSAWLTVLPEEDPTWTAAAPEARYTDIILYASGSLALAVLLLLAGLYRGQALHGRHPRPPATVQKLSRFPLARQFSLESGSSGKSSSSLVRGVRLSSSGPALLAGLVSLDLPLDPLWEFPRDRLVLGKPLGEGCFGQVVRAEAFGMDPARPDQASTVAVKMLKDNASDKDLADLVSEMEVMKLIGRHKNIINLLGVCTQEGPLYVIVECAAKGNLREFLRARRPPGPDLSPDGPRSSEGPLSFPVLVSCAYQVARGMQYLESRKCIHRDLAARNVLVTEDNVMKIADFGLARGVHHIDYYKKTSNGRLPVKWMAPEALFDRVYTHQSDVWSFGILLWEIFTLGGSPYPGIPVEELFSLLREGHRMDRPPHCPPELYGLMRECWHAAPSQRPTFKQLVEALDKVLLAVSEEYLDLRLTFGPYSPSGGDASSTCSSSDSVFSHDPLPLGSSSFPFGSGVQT
Chain of FGR (P09769 whole entry, species assumed): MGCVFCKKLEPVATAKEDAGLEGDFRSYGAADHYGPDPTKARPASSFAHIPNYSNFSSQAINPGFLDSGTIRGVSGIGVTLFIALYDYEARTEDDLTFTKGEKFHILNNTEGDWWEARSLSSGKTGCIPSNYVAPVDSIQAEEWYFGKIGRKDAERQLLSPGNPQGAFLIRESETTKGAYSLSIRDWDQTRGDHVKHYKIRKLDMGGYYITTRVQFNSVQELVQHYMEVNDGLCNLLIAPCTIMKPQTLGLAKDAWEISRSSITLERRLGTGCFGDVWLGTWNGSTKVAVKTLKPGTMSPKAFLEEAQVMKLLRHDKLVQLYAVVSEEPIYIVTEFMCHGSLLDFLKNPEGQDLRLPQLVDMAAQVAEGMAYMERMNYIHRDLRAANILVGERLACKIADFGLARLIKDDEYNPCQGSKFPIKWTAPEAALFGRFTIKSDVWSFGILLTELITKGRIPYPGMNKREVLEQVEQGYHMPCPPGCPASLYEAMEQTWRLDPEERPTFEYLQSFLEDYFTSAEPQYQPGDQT
Chain of CDK4/Cyclin D3 (P11802 whole entry, species assumed): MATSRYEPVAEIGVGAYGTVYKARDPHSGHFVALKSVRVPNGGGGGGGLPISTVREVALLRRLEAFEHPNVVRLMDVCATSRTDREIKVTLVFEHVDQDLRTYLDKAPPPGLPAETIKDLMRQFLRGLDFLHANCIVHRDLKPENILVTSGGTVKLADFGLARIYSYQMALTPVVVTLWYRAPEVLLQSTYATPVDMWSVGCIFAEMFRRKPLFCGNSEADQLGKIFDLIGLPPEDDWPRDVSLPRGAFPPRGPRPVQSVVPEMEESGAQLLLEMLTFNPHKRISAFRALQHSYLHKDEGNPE
Chain of CDK4/Cyclin D3 (P30281 whole entry partner, species assumed): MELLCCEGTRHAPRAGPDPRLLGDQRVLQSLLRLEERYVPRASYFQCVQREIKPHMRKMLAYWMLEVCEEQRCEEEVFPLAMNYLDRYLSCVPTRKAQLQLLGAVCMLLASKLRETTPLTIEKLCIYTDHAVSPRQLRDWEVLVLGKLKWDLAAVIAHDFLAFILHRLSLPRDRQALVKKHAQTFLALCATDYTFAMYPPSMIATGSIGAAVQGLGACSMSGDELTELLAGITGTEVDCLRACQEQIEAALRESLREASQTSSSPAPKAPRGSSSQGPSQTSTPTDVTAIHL

IC50 (ZAK/MLTK): 29.5 nM | IC50 (PKCnu/PRK D3): 55.8 nM | IC50 (LYN): 68.5 nM | IC50 (FGFR4): 3550 nM | IC50 (c-Kit): 408 nM | IC50 (TAOK1): 78.7 nM | IC50 (CDK4/Cyclin D3): 21.2 nM | IC50 (ABL1): 75.6 nM | IC50 (TGFbR2): 62.3 nM | IC50 (CDK5/p25): 264 nM | IC50 (CDK5/p35): 181 nM | IC50 (LCK): 50.4 nM | IC50 (LIMK1): 70.8 nM | IC50 (FRK/PTK5): 575 nM | IC50 (YES/YES1): 38.1 nM | IC50 (PKCmu): 142 nM | IC50 (FYN): 26.6 nM | IC50 (TTK): 156 nM | IC50 (PDGFRb): 2.64 nM | IC50 (CDK7/cyclinH/MNAT1): > 10000 nM | IC50 (CDK6/cyclinD3): 38.7 nM | IC50 [1]: 27.3 nM | IC50 (FGFR2): 54.8 nM | IC50 (EphB2/HEK5): 130 nM | IC50 (FGR): 112 nM | IC50 (CDK9/cyclinT1): 85.4 nM
SMILES: CN1CCN(c2ccc(Nc3ncc4cc(C#N)c(=O)n(C5CCCC5)c4n3)cc2)CC1 [Compound 12, 8-cyclopentyl-2-((4-(4-methylpiperazin-1-yl)phenyl)amino)-7-oxo-7,8-dihydropyrido[2,3-d]pyrimidine-6-carbonitrile]

From patent publication US8987267B2, “2-substituted-8-alkyl-7-OXO-7,8-dihydropyrido[2,3-D]pyrimidine-6-carbonitriles and uses thereof in treating proliferative disorders” (Temple University—of the Commonwealth System of Higher …, priority 2010, dated 2015)
